Experimental data reported in patent US10266544B2, “Aryl substituted aminomethyl spectinomycin analogs as antibacterial agents” (ST. JUDE CHILDREN'S RESEARCH HOSPITAL, INC., priority 2013, dated 2019).
Counter-ions that a name gives are not always drawn. Like-named read-outs stand apart in the source and are kept apart here.

Legend:
[1] = tested on: Stenotrophomonas maltophilia (ATCC 13637); experiment: MIC determination, microbroth dilution; assay type: cell-based; details: ATCC13637; Stenotrophomonas maltophilia (ATCC 13637); read-out: MIC S.m.
S. pneumoniae D39x = experiment: Mouse challenge, mouse model of lung infection; assay type: in vivo; details: p<0.02
Method: Mice were treated with a 5 mg/kg dose b.i.d. of spectinomycin (indicated as “SPC” in the figure) or compound 2 (the compound number refers to the compound number and associated structure shown in Table 1), or vehicle. (Panel B) The bacterial burden of mice at 18 hours post-challenge with S. pneumoniae D39x. (Panel C) Representative bioluminescent images of mice at 72 hours post challenge.
All experimental animal protocols were approved by the St. Jude Children's Research Hospital Institutional Animal Care and Use Committee. Seven week old, female BalbC/J mice (Jackson Labs, Bar Harbor, Me.) we utilized in these studies. All mice were maintained in BSL2 facilities and all experiments were done under inhaled isoflurane (2.5%). Bacteria (strain D39x) were introduced by intranasal administration of 2×10^7 CFU in 25 μL PBS. Mice received no treatment, plasmalyte A (vehicle control), ampicillin (100 mg/kg), spectinomycin (50, 25, 5 mg/kg) or the respective compounds (50, 25, 5 mg/kg) at dosages indicated. Antibiotics were administered in a volume of 100 μL by subcutaneous […] starting at 18 hours post challenge, a time point when the mice have developed pneumonia and bacteria have translocated into the bloodstream. Mice were subsequently dosed every 12 hours until 96 hours post challenge. Mice were monitored daily for signs of infection and weight loss. Differences in time to death were compared via Kaplan-Meier survival estimates. Bacterial density in blood was quantified at 24, 48, 72, and 96 hours post infection via blood collection, serial dilution, and plating. Groups were then compared by Mann-Whitney to determine statistical significance. At 8 days following challenge, surviving mice were euthanized and bacterial loads in lungs determined by homogenization followed by serial dilution and plating. In all instances, surviving mice had completely cleared bacteria from both the lungs and the bloodstream by this time point.
Compound 2 was tested for anti-pneumococcal activity in mice as described above. […]

[2] = tested on: Proteus vulgaris (ATCC 33420); experiment: MIC determination, microbroth dilution; assay type: cell-based; details: ATCC33420
[3] = tested on: MRSA, Staphylococcus aureus (NRS70); experiment: MIC determination, microbroth dilution; assay type: cell-based; details: Staphylococcus aureus (NRS70); read-out: MIC MRSA
[4] = tested on: Bacillus anthracis, Sterne 34F2; experiment: microbe, parasite or virus in culture; assay type: cell-based; details: STERNE34F2, read-out: MIC B.a.
[5] = tested on: Streptococcus pneumoniae (R6); experiment: MIC determination, microbroth dilution; assay type: cell-based
[6] = tested on: Pseudomonas aeruginosa (PA01); experiment: MIC determination, microbroth dilution; assay type: cell-based
[7] = tested on: Klebsiella pneumoniae (ATCC 33495); experiment: MIC determination, microbroth dilution; assay type: cell-based; details: ATCC33495
[8] = tested on: Streptococcus pyogenes (ATCC 700294); experiment: MIC determination, microbroth dilution; assay type: cell-based; details: ATCC700294; Streptococcus pyogenes (ATCC 700294); read-out: MIC S. py.
[9] = tested on: Streptococcus pneumoniae clinical isolates representing several serotypes; experiment: MIC determination, Streptococcus pneumoniae panel of clinical isolates (Table 7); assay type: cell-based; details: for MIC: Streptococcus pneumoniae
Yersinia pestis = experiment: microbe, parasite or virus in culture; assay type: cell-based; details: read-out: MIC Y.p.
[10] = tested on: Proteus mirabilis (ATCC 25933); experiment: MIC determination, microbroth dilution; assay type: cell-based; details: ATCC25933
[11] = tested on: live vaccine strain (LVS) of Francisella tularensis; experiment: microbe, parasite or virus in culture; assay type: cell-based; details: Francisella tularensis, read-out: MIC F.t.
[12] = tested on: M. tuberculosis clinical isolates; experiment: microbe, parasite or virus in culture; assay type: cell-based; details: Mycobacterium tuberculosis, H37RV, read-out: MIC H37Rv
Moraxella catarrhalis = experiment: MIC determination (Table 6); assay type: cell-based
[13] = tested on: Neisseria gonorrhoeae (ATCC 49226); experiment: Agar MIC determination (Alamar Blue); assay type: cell-based; details: ATCC49226, agar MIC, read-out: MIC N.g.
E. coli K12 ΔtolC = experiment: microbe, parasite or virus in culture; assay type: cell-based; details: Escherichia coli, read-out: MIC E.c. Δtolc
[14] = tested on: Burkholderia cepacia (ATCC 25416); experiment: MIC determination, microbroth dilution; assay type: cell-based; details: Burkholderia cepacia
[15] = tested on: Staphylococcus aureus (ATCC 29213); experiment: MIC determination, microbroth dilution; assay type: cell-based; details: ATCC29213; Staphylococcus aureus (ATCC 29213); read-out: MIC S.a.
[16] = tested on: Bacillus subtilis (ATCC 23857); experiment: MIC determination, microbroth dilution; assay type: cell-based; details: ATCC23857; Bacillus subtilis (ATCC 23857); read-out: MIC B.s.
Listeria monocytogenes = experiment: MIC determination (Table 6); assay type: cell-based
[17] = tested on: Legionella pneumophila (ATCC 33153); experiment: microbe, parasite or virus in culture; assay type: cell-based; details: ATCC33153, 72 h, read-out: Zone of inhibition L.p.

Compound: CN[C@@H]1[C@H](O)[C@H](NC)[C@H]2O[C@]3(O)[C@H](O[C@@H]2[C@H]1O)O[C@H](C)C[C@@]3(O)CNCc1ccc(F)cc1 [compound 2, 3′-(R)-3′-[(4-fluoro)benzylaminomethyl)]dihydrospectinomycin Trihydrochloride]
- MIC [1]: 25 µg/mL
- survival (S. pneumoniae D39x; 5 mg/Kg BID subcutaneous, from 18 hours post intranasal challenge, vs vehicle and spectinomycin): significantly improved survival
- bacterial burden in the blood (S. pneumoniae D39x; 48 hours post-challenge, vs spectinomycin and vehicle): reduced significantly
- MIC [2]: ≥ 200 µg/mL
- MIC [3]: 50 µg/mL
- MIC [4]: 25 µg/mL
- MIC ([5]; Streptococcus pneumoniae (R6), read-out: MIC S. pn.): 1.6 to 3.1 µg/mL
- MIC ([5]; Streptococcus pneumoniae, S. pneumoniae R6, Drug Susceptible, read-out: MIC R6): 3.1 µg/mL
- MIC [6]: 100 to 200 µg/mL
- MIC [7]: 100 to 200 µg/mL
- MIC [8]: 1.6 to 3.1 µg/mL
- susceptibility of strains with mono-resistance to penicillin, streptomycin, and erythromycin [9]: highly susceptible
- MIC ([9]; BAA1407, S. pneumoniae BAA-1407, Macrolide Resistant, read-out: MIC BAA-1407): 6.3 µg/mL
- MIC ([9]; S. pneumoniae A66.1x, Drug Susceptible, read-out: MIC A66.1x): 1.6 µg/mL
- MIC ([9]; S. pneumoniae BHN97x, Drug Susceptible, read-out: MIC BHN97x): 1.6 µg/mL
- MIC ([9]; S. pneumoniae D39X, Drug Susceptible, read-out: MIC D39X): 1.6 µg/mL
- MIC ([9]; S. pneumoniae Daw7, PenG Resistant, read-out: MIC Daw7): 3.1 µg/mL
- MIC ([9]; S. pneumoniae Daw8, PenG Resistant, read-out: MIC Daw8): 3.1 µg/mL
- MIC ([9]; S. pneumoniae Daw9, PenG Resistant, read-out: MIC Daw9): 3.1 µg/mL
- MIC ([9]; S. pneumoniae Daw62, PenG Resistant, read-out: MIC Daw62): 3.1 µg/mL
- MIC ([9]; S. pneumoniae Daw64, PenG Resistant, read-out: MIC Daw64): 3.1 µg/mL
- MIC ([9]; S. pneumoniae OVA6, Macrolide Resistant, read-out: MIC OVA6): 3.1 µg/mL
- MIC ([9]; S. pneumoniae T4X, Drug Susceptible, read-out: MIC T4X): 3.1 µg/mL
- MIC (Yersinia pestis): 100 µg/mL
- MIC [10]: > 200 µg/mL
- MIC [11]: 1.6 to 3.1 µg/mL
- MIC [12]: 25 µg/mL
- MIC (Moraxella catarrhalis): 3.1 µg/mL
- MIC [13]: 25 µg/mL
- MIC (E. coli K12 ΔtolC): 6.3 µg/mL
- MIC ([14]; ATCC25416, read-out: MIC B.c., Burkholderia cepacia (ATCC 25416)): > 200 µg/mL
- MIC ([14]; ATCC25416, read-out: MIC B.c., Burkholderia cepacia, Table 6): > 200 µg/mL
- MIC [15]: 25 to 50 µg/mL
- MIC [16]: 3.1 µg/mL
- MIC (Listeria monocytogenes): 6.3 µg/mL
- zone of inhibition at 4 µg/disc [17]: 32 to 49 mm
